Test results as given in the NIST ThermoML archive (doi:10.1016/j.fluid.2012.11.006).
Several values for one entry are separate records, joined by “and”; a condition that tells them apart may be missing. Equal values may be shown once. ± gives the expanded uncertainty stated by the source.

Columns and labels:
[1] = molar heat capacity at constant pressure; conditions: 101.33 kPa, Crystal, Flow calorimetry
[2] = molar enthalpy of transition or fusion; conditions: Crystal, DSC
[3] = molar enthalpy of vaporization or sublimation
[4] = Molar enthalpy of transition or fusion; conditions: Crystal; DSC

O=C(O)c1cc(Br)ccc1Br [2,5-dibromobenzoic acid]
Conditions | Normal melting temperature [°C] | molar enthalpy of transition or fusion [kcal/mol] | molar heat capacity at constant pressure
Crystal, DTA | 155 ± 0.5 | – | –
[1], 288.2 K | – | – | 216 ± 0.9 J/K/mol and 215.9 ± 0.9 J/K/mol
[1], 290.2 K | – | – | 217.4 ± 1 J/K/mol and 217.6 ± 1 J/K/mol and 217.5 ± 1 J/K/mol
[1], 292.2 K | – | – | 219.4 ± 1 J/K/mol and 219.3 ± 1 J/K/mol
[1], 294.2 K | – | – | 220.4 ± 0.8 J/K/mol and 220.6 ± 0.8 J/K/mol and 220.5 ± 0.8 J/K/mol
[1], 296.2 K | – | – | 221.5 ± 0.8 J/K/mol and 221.4 ± 0.8 J/K/mol and 221.7 ± 0.8 J/K/mol
[1], 298.2 K | – | – | 222.9 ± 0.9 J/K/mol and 223 ± 0.9 J/K/mol and 223.1 ± 0.9 J/K/mol
[1], 300.2 K | – | – | 224.7 ± 0.9 J/K/mol and 224.8 ± 0.9 J/K/mol
[1], 302.2 K | – | – | 225.9 ± 0.8 J/K/mol and 225.6 ± 0.8 J/K/mol and 225.8 ± 0.8 J/K/mol
[1], 304.2 K | – | – | 227 ± 0.9 J/K/mol and 227.3 ± 0.9 J/K/mol and 227.1 ± 0.9 J/K/mol
[1], 306.2 K | – | – | 228.3 ± 0.9 J/K/mol and 228.4 ± 0.9 J/K/mol and 228.5 ± 0.9 J/K/mol
[1], 308.2 K | – | – | 229.8 ± 1 J/K/mol and 229.6 ± 1 J/K/mol
[1], 310.2 K | – | – | 231.7 ± 0.9 J/K/mol and 231.6 ± 0.9 J/K/mol and 231.5 ± 0.9 J/K/mol
[1], 312.2 K | – | – | 232.5 ± 0.8 J/K/mol and 232.4 ± 0.8 J/K/mol and 232.3 ± 0.8 J/K/mol
[1], 314.2 K | – | – | 234 ± 0.9 J/K/mol and 233.9 ± 0.9 J/K/mol and 234.1 ± 0.9 J/K/mol
[1], 316.2 K | – | – | 235.3 ± 0.9 J/K/mol and 235.2 ± 0.9 J/K/mol
[1], 318.2 K | – | – | 237 ± 0.9 J/K/mol and 236.8 ± 0.9 J/K/mol and 236.9 ± 0.9 J/K/mol
[1], 320.2 K | – | – | 238.4 ± 0.7 J/K/mol and 238.5 ± 0.7 J/K/mol and 238.3 ± 0.7 J/K/mol
[1], 322.2 K | – | – | 239.1 ± 0.8 J/K/mol and 239 ± 0.8 J/K/mol
[1], 324.2 K | – | – | 240.7 ± 1 J/K/mol and 240.5 ± 1 J/K/mol and 240.4 ± 1 J/K/mol
[1], 326.2 K | – | – | 242.4 ± 1 J/K/mol and 242.1 ± 0.9 J/K/mol and 242.3 ± 1 J/K/mol
[2], 298.15 K | – | 31.6 ± 1.55 | –
[2], 428 K | – | 30.7 ± 1.12 | –

Conditions | vapor or sublimation pressure [kPa]
346.8 K, Crystal, Torsion effusion method | 4.7e-05 ± 2.1e-05
348.6 K, Crystal, Torsion effusion method | 5.7e-05 ± 2.2e-05
350 K, Crystal, Torsion effusion method | 7.6e-05 ± 2.3e-05
350.2 K, Crystal, Torsion effusion method | 7.6e-05 ± 2.3e-05
352.2 K, Crystal, Torsion effusion method | 9.5e-05 ± 2.3e-05
353 K, Crystal, Torsion effusion method | 0.000114 ± 2.5e-05
353.5 K, Crystal, Torsion effusion method | 0.000114 ± 2.5e-05
353.6 K, Crystal, Torsion effusion method | 0.000114 ± 2.5e-05
354.3 K, Crystal, Torsion effusion method | 0.000133 ± 2.8e-05
354.8 K, Crystal, Torsion effusion method | 0.000133 ± 3.1e-05
356.1 K, Crystal, Torsion effusion method | 0.000171 ± 3.1e-05
356.2 K, Crystal, Torsion effusion method | 0.000152 ± 3e-05
356.8 K, Crystal, Torsion effusion method | 0.000171 ± 3e-05
357.3 K, Crystal, Torsion effusion method | 0.000189 ± 3.8e-05
357.8 K, Crystal, Torsion effusion method | 0.000208 ± 3.8e-05
358.3 K, Crystal, Torsion effusion method | 0.000208 ± 2.9e-05
359.2 K, Crystal, Torsion effusion method | 0.000246 ± 3.1e-05
359.6 K, Crystal, Torsion effusion method | 0.000227 ± 3.7e-05
360.2 K, Crystal, Torsion effusion method | 0.000246 ± 3.6e-05
360.4 K, Crystal, Torsion effusion method | 0.000265 ± 3.3e-05
361.5 K, Crystal, Torsion effusion method | 0.000303 ± 5e-05
361.7 K, Crystal, Torsion effusion method | 0.000303 ± 4.9e-05
362.4 K, Crystal, Torsion effusion method | 0.00036 ± 4.4e-05
362.5 K, Crystal, Torsion effusion method | 0.000322 ± 4.2e-05
363 K, Crystal, Torsion effusion method | 0.000379 ± 7e-05
363.8 K, Crystal, Torsion effusion method | 0.000388 ± 5.5e-05
364.6 K, Crystal, Torsion effusion method | 0.000493 ± 4.4e-05
364.7 K, Crystal, Torsion effusion method | 0.000474 ± 4.5e-05
365.6 K, Crystal, Torsion effusion method | 0.000474 ± 6.7e-05
366.2 K, Crystal, Torsion effusion method | 0.000493 ± 5.5e-05
367.3 K, Crystal, Torsion effusion method | 0.000606 ± 0.0001
367.6 K, Crystal, Torsion effusion method | 0.000701 ± 0.0001
367.7 K, Crystal, Torsion effusion method | 0.000682 ± 0.0001
369.1 K, Crystal, Torsion effusion method | 0.000777 ± 7e-05
369.7 K, Crystal, Torsion effusion method | 0.000834 ± 0.0001
370.5 K, Crystal, Torsion effusion method | 0.000853 ± 0.00011
370.7 K, Crystal, Torsion effusion method | 0.000947 ± 0.00011
371.2 K, Crystal, Torsion effusion method | 0.001023 ± 0.00011
372.3 K, Crystal, Torsion effusion method | 0.001099 ± 9.4e-05
373 K, Crystal, Torsion effusion method | 0.001175 ± 0.00013
373.5 K, Crystal, Torsion effusion method | 0.001213 ± 0.00015
373.7 K, Crystal, Torsion effusion method | 0.00127 ± 0.00014
375.4 K, Crystal, Torsion effusion method | 0.001516 ± 0.00021
376.8 K, Crystal, Torsion effusion method | 0.001914 ± 0.00029
376.9 K, Crystal, Torsion effusion method | 0.001762 ± 0.00018
440.2 K, Liquid, non-isothermal thermogravimetric | 0.643 ± 0.11
440.5 K, Liquid, non-isothermal thermogravimetric | 0.663 ± 0.091
441.3 K, Liquid, non-isothermal thermogravimetric | 0.731 ± 0.094
442.1 K, Liquid, non-isothermal thermogravimetric | 0.732 ± 0.095
443.1 K, Liquid, isothermal thermogravimetric | 0.819 ± 0.06
444 K, Liquid, isothermal thermogravimetric | 0.821 ± 0.092
444.1 K, Liquid, isothermal thermogravimetric | 0.835 ± 0.09
444.1 K, Liquid, non-isothermal thermogravimetric | 0.844 ± 0.098
444.6 K, Liquid, non-isothermal thermogravimetric | 0.841 ± 0.092
444.8 K, Liquid, isothermal thermogravimetric | 0.822 ± 0.082
445.4 K, Liquid, non-isothermal thermogravimetric | 0.919 ± 0.092
446.3 K, Liquid, non-isothermal thermogravimetric | 0.924 ± 0.096
447 K, Liquid, isothermal thermogravimetric | 1.031 ± 0.087
448.1 K, Liquid, isothermal thermogravimetric | 1.01 ± 0.091
448.3 K, Liquid, isothermal thermogravimetric | 1.044 ± 0.089
448.3 K, Liquid, non-isothermal thermogravimetric | 1.04 ± 0.1
448.7 K, Liquid, isothermal thermogravimetric | 1.012 ± 0.089
448.8 K, Liquid, non-isothermal thermogravimetric | 1.066 ± 0.1
449.2 K, Liquid, non-isothermal thermogravimetric | 1.146 ± 0.1
450.1 K, Liquid, non-isothermal thermogravimetric | 1.151 ± 0.11
451.2 K, Liquid, isothermal thermogravimetric | 1.291 ± 0.11
452 K, Liquid, non-isothermal thermogravimetric | 1.302 ± 0.12
452.1 K, Liquid, isothermal thermogravimetric | 1.259 ± 0.11
452.3 K, Liquid, isothermal thermogravimetric | 1.306 ± 0.1
452.9 K, Liquid, isothermal thermogravimetric | 1.282 ± 0.1
452.9 K, Liquid, non-isothermal thermogravimetric | 1.335 ± 0.1
453.1 K, Liquid, non-isothermal thermogravimetric | 1.404 ± 0.099
454.2 K, Liquid, non-isothermal thermogravimetric | 1.429 ± 0.098
455.1 K, Liquid, isothermal thermogravimetric | 1.608 ± 0.11
456.1 K, Liquid, isothermal thermogravimetric | 1.617 ± 0.12
456.2 K, Liquid, isothermal thermogravimetric | 1.573 ± 0.11
456.3 K, Liquid, non-isothermal thermogravimetric | 1.578 ± 0.11
456.7 K, Liquid, non-isothermal thermogravimetric | 1.622 ± 0.11
456.8 K, Liquid, isothermal thermogravimetric | 1.602 ± 0.11
457.1 K, Liquid, non-isothermal thermogravimetric | 1.739 ± 0.12
458.2 K, Liquid, non-isothermal thermogravimetric | 1.752 ± 0.1
459.3 K, Liquid, isothermal thermogravimetric | 1.974 ± 0.1
460 K, Liquid, isothermal thermogravimetric | 1.91 ± 0.14
460.1 K, Liquid, non-isothermal thermogravimetric | 1.931 ± 0.14
460.3 K, Liquid, isothermal thermogravimetric | 1.994 ± 0.14
460.6 K, Liquid, non-isothermal thermogravimetric | 1.967 ± 0.12
461 K, Liquid, isothermal thermogravimetric | 1.945 ± 0.13
461.2 K, Liquid, non-isothermal thermogravimetric | 2.111 ± 0.14
462.1 K, Liquid, non-isothermal thermogravimetric | 2.123 ± 0.14
463.1 K, Liquid, isothermal thermogravimetric | 2.39 ± 0.14
464.1 K, Liquid, isothermal thermogravimetric | 2.401 ± 0.17
464.2 K, Liquid, non-isothermal thermogravimetric | 2.396 ± 0.17
464.3 K, Liquid, isothermal thermogravimetric | 2.319 ± 0.15
464.8 K, Liquid, isothermal thermogravimetric | 2.362 ± 0.14
464.8 K, Liquid, non-isothermal thermogravimetric | 2.456 ± 0.15
465.4 K, Liquid, non-isothermal thermogravimetric | 2.637 ± 0.14
466.2 K, Liquid, non-isothermal thermogravimetric | 2.643 ± 0.15
467 K, Liquid, isothermal thermogravimetric | 2.886 ± 0.19
467.1 K, Liquid, isothermal thermogravimetric | 2.776 ± 0.18
468.1 K, Liquid, non-isothermal thermogravimetric | 2.879 ± 0.15
468.2 K, Liquid, isothermal thermogravimetric | 2.931 ± 0.15
468.5 K, Liquid, non-isothermal thermogravimetric | 2.897 ± 0.14
468.7 K, Liquid, isothermal thermogravimetric | 2.855 ± 0.078

[3]
Conditions | molar enthalpy [kcal/mol]
298.15 K, Crystal, Torsion-effucion | 31.9 ± 0.478
428 K, Liquid, DSC | 22.2 ± 0.693

Conditions | Molar enthalpy of transition or fusion [kcal/mol]
[4] | 8.77 ± 0.884
